Patent US10865387B2, “Methods of obtaining pancreatic endocrine cells” (The University Court of the University of Aberdeen, priority 2014, dated 2020)

Experiments:
[1] = tested on: human exocrine enriched fraction (EEF); assay: RT-qPCR of hormone and transcription factor mRNA in reprogrammed exocrine cells; type: cell-based
Protocol: After 48 h the cells were incubated for another 72 h in serum free medium (SFM) prepared with RPMI 1640, insulin-transferrin-selenium (Gibco) and 1% bovine serum albumin (Sigma), supplemented with 10 μM SB431542, 2 μM Y27632, 1 μM 5-Aza-2′deoxycytidine and 10 mM sodium butyrate (all from Sigma). On the next day the cells were incubated for 4 h with the adenoviruses encoding pancreatic transcription factors. On the following day the medium was changed for SFM supplemented with 1 nM betacellulin (R&D systems, Abingdon, UK), 10 nM exendin-4 and 10 mM nicotinamide (both from Sigma). The medium was changed every two days for another 6 days before harvesting.
Recombinant adenoviruses encoding the mouse sequences of PDX1, MAFA, NGN3 and PAX4 (Swales et al., 2012) were prepared using the Ad-Easy™ system (Agilent Technologies, Edinburgh, UK). The adenoviruses containing PDX1 and NGN3 also expressed GFP through a downstream CMV promoter. Viral transduction was performed in SFM for 4 h at a multiplicity of infection (MOI) of 100 for each virus.
QRT/PCR was performed as previously described (Lima et al., 2012. Data were analysed using the 2^−ΔΔCT method. Statistical analysis was performed using PRISM software and the student's t-test or one-way ANOVA followed by the Dunnet's post-hoc test, as appropriate. The list of TaqMan probes are listed in Table 1:
Knockdown of Arx in transdifferentiating cells was performed by transfection with a pool of specific targeting small inhibitory RNAs, or scrambled controls (Dharmacon, Loughborough, UK). 100 nM siRNA was transfected on day 6 of the transdifferentiation protocol using Dharmafect 1 (Dharmacon), according to the manufacturer's instructions.
EEF cells were plated directly from the low purity fractions obtained following islet isolation. EEF cells were cultured as a monolayer for two days and then treated with SB, Y2, Aza and NaBu for 3 days. […]

[2] = tested on: human exocrine enriched fraction (EEF); assay: Insulin, C-peptide and glucagon content of cell lysates by ELISA; type: cell-based; conditions: reprogrammed (siARX) cells with ZnCl2 10 μM; FIG. 15
Excerpt: FIG. 10. ARX inhibition enhances beta cell maturation and decreases alpha cell differentiation. (A) C-peptide release by untreated (N/A), transdifferentiated cells in the absence of siARX (REP), siARX transdifferentiated cells (siARX) and in the absence of PAX4 (siARX-PAX4). C-peptide was detected from the culture medium by a specific human C-peptide ELISA. Data are representative of triplicate experiments. (B) Insulin, C-peptide and Proinsulin content of untreated, transdifferentiated cells in the absence of siARX (REP), siARX transdifferentiated cells (siARX) and human islets. The content of each peptide was detected by specific human ELISAs after cell lysis and normalised to the total protein content. Data are representative of triplicate experiments. (C) Glucagon content of untreated, transdifferentiated cells in the absence of siARX (REP), siARX transdifferentiated cells (siARX) and human islets. Glucagon was detected by a specific human ELISA after cell lysis and normalised to the total protein content. Data are representative of triplicate experiments. […]
[…] were measured using a human glucagon Quantikine ELISA kit (R&D Systems, Abingdon, UK), a human C-peptide ELISA kit (Millipore, Livingston, UK), a human prosinsulin ELISA kit or a human insulin ELISA kit (both from Mercodia, Uppsala, Sweden). […]

[3] = cells reprogrammed (siARX) with ZnCl2 10 μM, FIG. 14

Row | Compound | insulin gene expression [1, 3] | mRNA encoding PAX4 [1, 3] | insulin (C-peptide) protein content [2] | efficiency of reprogramming (relative expression of insulin) on extracellular matrix ([1]; PDX1/MAFA/NGN3/PAX4 protocol, compared with fibronectin, poly-lysine, collagen type I and IV, FIG. 4)
1 | [Cl-].[Cl-].[Zn+2] [ZnCl2] | significant effect | increased levels | stimulatory effect | 
2 | laminin |  |  |  | improves the efficiency of reprogramming
